Assay [1] has as its target T1, human recombinant GR (Homo sapiens, UniProt P04150).
T1 construct: purchased PanVera P2812
T1 sequence (P04150 1-777): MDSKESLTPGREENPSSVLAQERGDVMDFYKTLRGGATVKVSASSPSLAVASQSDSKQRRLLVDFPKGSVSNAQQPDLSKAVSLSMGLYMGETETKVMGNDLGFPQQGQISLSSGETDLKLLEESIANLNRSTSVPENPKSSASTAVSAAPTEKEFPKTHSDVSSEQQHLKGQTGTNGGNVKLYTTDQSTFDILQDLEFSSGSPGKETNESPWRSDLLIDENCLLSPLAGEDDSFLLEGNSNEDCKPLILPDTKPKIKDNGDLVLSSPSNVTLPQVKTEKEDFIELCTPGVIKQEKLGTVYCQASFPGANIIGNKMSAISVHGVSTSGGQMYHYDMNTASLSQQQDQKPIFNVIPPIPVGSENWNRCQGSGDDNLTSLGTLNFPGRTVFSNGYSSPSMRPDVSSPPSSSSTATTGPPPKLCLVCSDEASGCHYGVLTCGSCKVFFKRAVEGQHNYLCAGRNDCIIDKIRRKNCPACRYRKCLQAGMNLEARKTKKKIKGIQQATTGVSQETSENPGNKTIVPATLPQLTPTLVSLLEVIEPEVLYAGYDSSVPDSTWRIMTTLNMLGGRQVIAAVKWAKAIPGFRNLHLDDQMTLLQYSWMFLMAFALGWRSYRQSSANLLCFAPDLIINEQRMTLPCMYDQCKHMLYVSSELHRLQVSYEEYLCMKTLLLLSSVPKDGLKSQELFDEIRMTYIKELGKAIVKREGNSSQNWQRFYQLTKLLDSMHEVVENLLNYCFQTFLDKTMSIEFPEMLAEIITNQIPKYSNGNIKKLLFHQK
As to the kind of experiment: Human Glucocorticoid Receptor (GR) Fluorescence Polarisation (FP) Binding Assay. The conditions noted are these: Ki from IC50 by ligand depletion correction; displacement of Fluorome GS Red. The procedure:
The following is a description of a FP assay for measuring compound inhibition of labelled glucocorticoid binding to the human recombinant GR.
The binding affinity of test compounds was determined using a FP binding assay using human recombinant GR (PanVera P2812) and a fluorescent labelled glucocorticoid ligand (Fluorome GS Red) (PanVera P2894). The presence of inhibitors prevents the formation of a GS Red/GR complex resulting in a decrease in the measured polarisation value. The change in polarisation value in the presence of test compounds is used to calculate the binding affinity of the compound for GR.
This assay was performed in 384 well, black, round-bottom, polypropylene micro titre plates in a final volume of 20 μl. The assay contained 5 μl 1 nM GR (final concentration), 5 μl 0.5 nM Fluorome GS Red (final concentration) in the presence of 10p test compounds. Positive control wells (high polarisation) receive, 10 μl 2% (v:v) DMSO vehicle (1% (v/v) final concentration)+5 μl 1 nM GR and 5 μl 0.5 nM Fluorome GS Red. […] Assay blank background wells (used for normalisation) receive 15 μl 1×GS screening buffer+5 μl GR.
For the IC50 determination (concentration of compound that displaces 50% of the bound GS Red), compounds were tested at eight different concentrations in duplicate in two independently performed experiments. Compounds were prepared as solubilised solids at 10 mM in DMSO. On the day of assay, an 8 point half-log serial dilution (55 μl DMSO+25 μl compound solution) was prepared. A 1:50 dilution (1 μl compound solution+49 μl 1×GR screening buffer) was prepared for each compound. The compounds were prepared at 2× final assay concentration.
The plates were mixed and incubated for 4 hour at room temperature. FP was measured using an Envision Excite plate reader with 535 nm excitation and 590 nm emission interference filters.
Milli-polarisation (mP) values were calculated using the below equation: mP=1000*(S−G*P)/(S+G*P) where S and P are assay blank background subtracted fluorescence units, G=G-factor (1.07).
Compound IC50 values were calculated by plotting a [compound] v. % inhibition curve and fitting the data to a 4-parameter logistic fit equation.
10×GR screening buffer (100 mM potassium phosphate pH 7.4, 200 mM Na2MoO4, 1 mM EDTA, 20% (v/v) DMSO). To prepare 1×GR screening buffer, combine 1 ml 10×GR screening buffer (PanVera P2814)+1 ml stabilising peptide (PanVera P2815)+7.95 ml 4° C. MQ water. Add 50p 1M DTT, vortex and place on ice until use.
In general terms: Polarisation of emitted light reports the rotation of a fluorescent probe.

The target in assay [2] is T2, glucocorticoid receptor (Homo sapiens, UniProt P04150).
T2 construct: endogenous in cells; host or cells: HepG2
T2 sequence (P04150 1-777): T1 sequence (P04150 1-777)
In words: HepG2 Tyrosine Aminotransferase (TAT) Assay. The class given is cell-based. As to the method: Glucocorticoid mediated activation of TAT occurs by transactivation of glucocorticoid response elements in the TAT promoter by glucocorticoid receptor-agonist complex.
HepG2 cells were cultured using MEME media supplemented with 10% (v/v) foetal bovine serum; 2 mM L-glutamine and 1% (v/v) NEAA at 37° C., 5%/95% (v/v) CO2/air.
Compounds were serially half log diluted in 100% (v/v) dimethylsulphoxide from a 10 mM stock.
HepG2 cells were then lysed with 30 μl of cell lysis buffer containing a protease inhibitor cocktail for 15 minutes at 4° C. […] After 2 hours incubation at 37° C. the reaction was terminated by the addition of 15 μl of 10 M aqueous potassium hydroxide solution, and the plates incubated for a further 30 minutes at 37° C.
[compound] and fitting the data to a 4 parameter logistic equation.

SMILES strings stand for the structures. Some results are limits rather than exact numbers.

As to `Cn1ncc(S(=O)(=O)N2CC[C@H]3Cc4c(cnn4-c4ccc(F)cc4)C[C@]3(C(=O)c3cc(C(F)(F)F)ccn3)C2)n1` [Example 2C, ((4aR,8aS)-1-(4-fluorophenyl)-6-((2-methyl-2H-1,2,3-triazol-4-yl)sulfonyl)-4,4a,5,6,7,8,8a,9-octahydro-1H-pyrazolo[3,4-g]isoquinolin-4a-yl)(4-(trifluoromethyl)pyridin-2-yl)methanone], the inhibition constant Ki is 0.5 to 1 nM in assay [1] and under 20 nM in assay [2].
The matching figures for `Cn1ncc(S(=O)(=O)N2CC[C@H]3Cc4c(cnn4-c4ccc(F)cc4)C[C@]3(C(=O)c3ccccn3)C2)n1` [Example 2AC, ((4aR,8aS)-1-(4-fluorophenyl)-6-((2-methyl-2H-1,2,3-triazol-4-yl)sulfonyl)-4,4a,5,6,7,8,8a,9-octahydro-1H-pyrazolo[3,4-g]isoquinolin-4a-yl)(pyridin-2-yl)methanone]: over 1 nM and 20 to 100 nM.
On to `O=C(c1ccccn1)[C@]12Cc3cnn(-c4ccc(F)cc4)c3C[C@@H]1CCN(S(=O)(=O)c1cccc(F)c1)C2` [Example 2F, ((4aR,8aS)-1-(4-fluorophenyl)-6-((3-fluorophenyl)sulfonyl)-4,4a,5,6,7,8,8a,9-octahydro-1H-pyrazolo[3,4-g]isoquinolin-4a-yl)(pyridin-2-yl)methanone], for which the results for the inhibition constant (Ki) in assay [1] and in assay [2] were over 1 nM and 20 to 100 nM, respectively.
Regarding `Cn1ncc(S(=O)(=O)N2CC[C@H]3Cc4c(cnn4-c4ccc(F)cc4)C[C@]3(C(=O)c3cscn3)C2)n1` [Example 2AI, ((4aR,8aS)-1-(4-fluorophenyl)-6-((2-methyl-2H-1,2,3-triazol-4-yl)sulfonyl)-4,4a,5,6,7,8,8a,9-octahydro-1H-pyrazolo[3,4-g]isoquinolin-4a-yl)(thiazol-4-yl)methanone], the values for the Ki in assay [1] and in assay [2] were over 1 nM and 20 to 100 nM, respectively.
With `CCCn1cc(S(=O)(=O)N2CC[C@H]3Cc4c(cnn4-c4ccc(F)cc4)C[C@]3(C(=O)c3ccccn3)C2)cn1` [Example 2B, ((4aR,8aS)-1-(4-fluorophenyl)-6-((1-propyl-1H-pyrazol-4-yl)sulfonyl)-4,4a,5,6,7,8,8a,9-octahydro-1H-pyrazolo[3,4-g]isoquinolin-4a-yl)(pyridin-2-yl)methanone], the values for the Ki in assay [1] and in assay [2] were under 0.5 nM and under 20 nM, respectively.
For the compound `O=C(c1nccs1)[C@]12Cc3cnn(-c4ccc(F)cc4)c3C[C@@H]1CCN(S(=O)(=O)c1ccc(C(F)(F)F)cc1)C2` [Example 2M, ((4aR,8aS)-1-(4-fluorophenyl)-6-((4-(trifluoromethyl)phenyl)sulfonyl)-4,4a,5,6,7,8,8a,9-octahydro-1H-pyrazolo[3,4-g]isoquinolin-4a-yl)(thiazol-2-yl)methanone], the Ki in assay [1] was over 1 nM; in assay [2] it was 20 to 100 nM.
Regarding `CCCn1nncc1S(=O)(=O)N1CC[C@H]2Cc3c(cnn3-c3ccc(F)cc3)C[C@]2(C(=O)c2nccs2)C1` [Example 2W, ((4aR,8aS)-1-(4-fluorophenyl)-6-((1-propyl-1H-1,2,3-triazol-5-yl)sulfonyl)-4,4a,5,6,7,8,8a,9-octahydro-1H-pyrazolo[3,4-g]isoquinolin-4a-yl)(thiazol-2-yl)methanone], the Ki in assay [1] is over 1 nM; in assay [2], over 100 nM.
With `O=C(c1nccs1)[C@]12Cc3cnn(-c4ccc(F)cc4)c3C[C@@H]1CCN(S(=O)(=O)c1cccc(C(F)(F)F)n1)C2` [Example 2AG, ((4aR,8aS)-1-(4-fluorophenyl)-6-((6-(trifluoromethyl)pyridin-2-yl)sulfonyl)-4,4a,5,6,7,8,8a,9-octahydro-1H-pyrazolo[3,4-g]isoquinolin-4a-yl)(thiazol-2-yl)methanone], the results for the inhibitory constant (Ki) in assay [1] and in assay [2] were 0.5 to 1 nM and 20 to 100 nM, respectively.
Regarding `CN1CCOc2cc(S(=O)(=O)N3CC[C@H]4Cc5c(cnn5-c5ccc(F)cc5)C[C@]4(C(=O)c4ccccn4)C3)cnc21` [Example 2V, ((4aR,8aS)-1-(4-fluorophenyl)-6-((4-methyl-3,4-dihydro-2H-pyrido[3,2-b][1,4]oxazin-7-yl)sulfonyl)-4,4a,5,6,7,8,8a,9-octahydro-1H-pyrazolo[3,4-g]isoquinolin-4a-yl)(pyridin-2-yl)methanone], the Ki in assay [1] was over 1 nM; in assay [2], 20 to 100 nM.
As to `O=C(c1ccccn1)[C@]12Cc3cnn(-c4ccc(F)cc4)c3C[C@@H]1CCN(S(=O)(=O)c1ccc(C(F)(F)F)c(F)c1)C2` [Example 2U, ((4aR,8aS)-6-((3-fluoro-4-(trifluoromethyl)phenyl)sulfonyl)-1-(4-fluorophenyl)-4,4a,5,6,7,8,8a,9-octahydro-1H-pyrazolo[3,4-g]isoquinolin-4a-yl)(pyridin-2-yl)methanone], the Ki in assay [1] is over 1 nM; in assay [2], 20 to 100 nM.
The corresponding values for `CC(C)n1ncc(S(=O)(=O)N2CC[C@H]3Cc4c(cnn4-c4ccc(F)cc4)C[C@]3(C(=O)c3ccccn3)C2)n1` [Example 2N, ((4aR,8aS)-1-(4-fluorophenyl)-6-((2-isopropyl-2H-1,2,3-triazol-4-yl)sulfonyl)-4,4a,5,6,7,8,8a,9-octahydro-1H-pyrazolo[3,4-g]isoquinolin-4a-yl)(pyridin-2-yl)methanone] are under 0.5 nM and under 20 nM.
The corresponding values for `CC(C)n1ncc(S(=O)(=O)N2CC[C@H]3Cc4c(cnn4-c4ccc(F)cc4)C[C@]3(C(=O)c3cscn3)C2)n1` [Example 2AJ, ((4aR,8aS)-1-(4-fluorophenyl)-6-((2-isopropyl-2H-1,2,3-triazol-4-yl)sulfonyl)-4,4a,5,6,7,8,8a,9-octahydro-1H-pyrazolo[3,4-g]isoquinolin-4a-yl)(thiazol-4-yl)methanone] are under 0.5 nM and under 20 nM.
Turning to `CCCn1ncc(S(=O)(=O)N2CC[C@H]3Cc4c(cnn4-c4ccc(F)cc4)C[C@]3(C(=O)c3ccccn3)C2)n1` [Example 2A, ((4aR,8aS)-1-(4-fluorophenyl)-6-((2-propyl-2H-1,2,3-triazol-4-yl)sulfonyl)-4,4a,5,6,7,8,8a,9-octahydro-1H-pyrazolo[3,4-g]isoquinolin-4a-yl)(pyridin-2-yl)methanone], the inhibitory constant (Ki) in assay [1] is under 0.5 nM; in assay [2] it was under 20 nM.
The corresponding values for `CCn1cc(S(=O)(=O)N2CC[C@H]3Cc4c(cnn4-c4ccc(F)cc4)C[C@]3(C(=O)c3cc(C(F)(F)F)ccn3)C2)cn1` [Example 2K, ((4aR,8aS)-6-((1-ethyl-1H-pyrazol-4-yl)sulfonyl)-1-(4-fluorophenyl)-4,4a,5,6,7,8,8a,9-octahydro-1H-pyrazolo[3,4-g]isoquinolin-4a-yl)(4-(trifluoromethyl)pyridin-2-yl)methanone] are 0.5 to 1 nM and 20 to 100 nM.

Broadly, the Ki is the dissociation constant of the complex between target and ligand, obtained from inhibition or displacement.

The record behind these values is patent US12139486B2, “Octahydro fused azadecalin glucocorticoid receptor modulators” (Corcept Therapeutics, Inc., priority 2013, dated 2024).
